Patent US7618816B2, “Metal-binding therapeutic peptides” (Ontherix, Inc., priority 2005, dated 2009)
“And” between values parts separate entries of the source, which are not always exact repeats. Equal entries are not always repeated. Where a SMILES comes first, the peptide text is derived from it. Where no end group is shown, it is not given here. The star is where a group is joined. Biotin = O=C1N[C@H]2[C@H](CS[C@H]2CCCCC(=O)*)N1

What was measured:
MOLT-4 = test: Cytotoxicity of MBD therapeutic peptides; assay type: cell-based, human; conditions: relative to equal dose of control MBD peptide, only p < 0.05 shown, 1-4 experiments
From the text: (§1) Also, peptides such as NFKB and CSK are of interest, targeting stress-coping mechanisms such as inflammation. The breast cancer lines tested are HS578T, MX-1, MDA-MB231, MDA-MB435 and MCF7. Leukemia cell lines tested for cytotoxicity effects with these MBD-tagged peptides are CCRF-CEM, RPMI-8226 and MOLT-4. Overall, MCF-7 and CCRF-CEM yield the most consistent data and the strongest effect across the board (Table 12). In addition, elevated levels of cytotoxicity are observed when multiple peptides are combined while keeping the overall amount of peptide added constant. Cytotoxicity increases with the number of peptides added per cocktail and is further enhanced by combining peptide cocktail treatment with paclitaxel.

MCF-7 = test: Cytotoxicity of MBD therapeutic peptides; assay type: cell-based, human; conditions: relative to equal dose of control MBD peptide, only p < 0.05 shown, 1-4 experiments
From the text: as §1

CCRF-CEM = test: Cytotoxicity of MBD therapeutic peptides; assay type: cell-based, human; conditions: relative to equal dose of control MBD peptide, only p < 0.05 shown, 1-4 experiments
From the text: as §1

Hs578T = test: Cytotoxicity of MBD therapeutic peptides; assay type: cell-based; conditions: relative to equal dose of control MBD peptide, only p < 0.05 shown, 1-4 experiments
From the text: as §1

MDA-MB231 = test: Cytotoxicity of MBD therapeutic peptides; assay type: cell-based, human; conditions: relative to equal dose of control MBD peptide, only p < 0.05 shown, 1-4 experiments
From the text: as §1

MX-I = test: Cytotoxicity of MBD therapeutic peptides; assay type: cell-based, human; conditions: relative to equal dose of control MBD peptide, only p < 0.05 shown, 1-4 experiments
From the text: as §1

RPMI-8826 = test: Cytotoxicity of MBD therapeutic peptides; assay type: cell-based, human; conditions: relative to equal dose of control MBD peptide, only p < 0.05 shown, 1-4 experiments
From the text: as §1

MDA-MB435 = test: Cytotoxicity of MBD therapeutic peptides; assay type: cell-based; conditions: relative to equal dose of control MBD peptide, only p < 0.05 shown, 1-4 experiments
From the text: as §1

SR = test: Cytotoxicity of MBD therapeutic peptides; assay type: cell-based; conditions: relative to equal dose of control MBD peptide, only p < 0.05 shown, 1-4 experiments
cancer cells = test: Selective cytotoxicity, cancer cells versus normal counterparts; assay type: cell-based, human
From the text: as §1

CC(C)[C@H](NC(=O)[C@H](C)NC(=O)[C@H](Cc1c[nH]c2ccccc12)NC(=O)[C@H](CS)NC(=O)[C@H](Cc1ccccc1)NC(=O)CNC(=O)[C@H](CCCNC(=N)N)NC(=O)[C@H](CCCCN)NC(=O)[C@H](CCCNC(=N)N)NC(=O)CNC(=O)[C@H](CCCCN)NC(=O)[C@H](CO)NC(=O)[C@@H]1CCCN1C(=O)[C@H](CCCNC(=N)N)NC(=O)[C@H](CS)NC(=O)[C@H](CCC(N)=O)NC(=O)[C@H](CCCCN)NC(=O)[C@H](CCCCN)NC(=O)[C@H](CCCCN)NC(=O)[C@H](Cc1ccc(O)cc1)NC(=O)[C@H](Cc1ccccc1)NC(=O)CNC(=O)[C@H](CCCCN)NC(=O)[C@H](CCCCN)NC(=O)CCCC[C@@H]1SC[C@@H]2NC(=O)N[C@@H]21)C(=O)N[C@@H](C)C(=O)N[C@@H](CCC(=O)O)C(=O)N[C@@H](Cc1ccc(O)cc1)C(=O)N[C@@H](C)C(=O)N[C@@H](CCCNC(=N)N)C(=O)N[C@H](C(=O)N[C@@H](CCC(N)=O)C(=O)N[C@@H](CCCCN)C(=O)N[C@@H](CCCNC(=N)N)C(=O)N[C@@H](CCCCN)C(=O)O)C(C)C [CSK] (Biotin-KKGFYKKKQCRPSKGRKRGFCWAVAEYARVQKRK-OH)
% viability @ 48 hr/25 ug/ml peptide, MOLT-4 (MOLT-4): 81.0 ± 7.1% and 54.8 ± 9.7% | % viability @ 48 hr/25 ug/ml peptide, MCF-7 (MCF-7): 21.1 ± 4.1% and 41.3 ± 5.8% | % viability @ 48 hr/25 ug/ml peptide, CCRF-CEM (CCRF-CEM): 75.1 ± 4.5% and 85.5 ± 2.3% | % viability @ 48 hr/25 ug/ml peptide, Hs578T (Hs578T): 50.2 ± 1.6% and 76.3 ± 0.6%

CSCC[C@H](NC(=O)[C@H](CC(C)C)NC(=O)[C@H](CCCCN)NC(=O)[C@H](CCC(N)=O)NC(=O)[C@H](CCCNC(=N)N)NC(=O)[C@H](CCCCN)NC(=O)[C@H](CCCNC(=N)N)NC(=O)[C@H](CCC(N)=O)NC(=O)[C@@H](NC(=O)[C@@H]1CCCN1C(=O)[C@H](C)NC(=O)[C@H](Cc1c[nH]c2ccccc12)NC(=O)[C@H](CS)NC(=O)[C@H](Cc1ccccc1)NC(=O)CNC(=O)[C@H](CCCNC(=N)N)NC(=O)[C@H](CCCCN)NC(=O)[C@H](CCCNC(=N)N)NC(=O)CNC(=O)[C@H](CCCCN)NC(=O)[C@H](CO)NC(=O)[C@@H]1CCCN1C(=O)[C@H](CCCNC(=N)N)NC(=O)[C@H](CS)NC(=O)[C@H](CCC(N)=O)NC(=O)[C@H](CCCCN)NC(=O)[C@H](CCCCN)NC(=O)[C@H](CCCCN)NC(=O)[C@H](Cc1ccc(O)cc1)NC(=O)[C@H](Cc1ccccc1)NC(=O)CNC(=O)[C@H](CCCCN)NC(=O)[C@H](CCCCN)NC(=O)CCCC[C@@H]1SC[C@@H]2NC(=O)N[C@@H]21)C(C)C)C(=O)N1CCC[C@H]1C(=O)O [NFKB] (Biotin-KKGFYKKKQCRPSKGRKRGFCWAPVQRKRQKLMP-OH)
% viability @ 48 hr/25 ug/ml peptide, MDA-MB231 (MDA-MB231): 91.6 ± 6.1% | % viability @ 48 hr/25 ug/ml peptide, MX-I (MX-I): 74.1 ± 6.1% | % viability @ 48 hr/25 ug/ml peptide, MOLT-4 (MOLT-4): 35.9 ± 6.8% and 22.5 ± 3.5% | % viability @ 48 hr/25 ug/ml peptide, MCF-7 (MCF-7): 32.8 ± 17.7% | % viability @ 48 hr/25 ug/ml peptide, CCRF-CEM (CCRF-CEM): 47.4 ± 13.9% | % viability @ 48 hr/25 ug/ml peptide, RPMI-8826 (RPMI-8826): 64.6 ± 14.3% | % viability @ 48 hr/25 ug/ml peptide, MDA-MB435 (MDA-MB435): 18.0 ± 1.6% and 29.6 ± 2.6% | % viability @ 48 hr/25 ug/ml peptide, Hs578T (Hs578T): 36.3 ± 5.6% and 30.6 ± 2.7%

Biotin-KKGFYKKKQCRPSKGRKRGFCWAVQTLLQQMQDKFQTMSDQI (cysteines drawn unpaired) [M9HSBP2]
% viability @ 48 hr/25 ug/ml peptide, MOLT-4 (MOLT-4): 94.2 ± 17.1% | % viability @ 48 hr/25 ug/ml peptide, CCRF-CEM (CCRF-CEM): 92.6 ± 2.0% | % viability @ 48 hr/25 ug/ml peptide, RPMI-8826 (RPMI-8826): 81.7 ± 2.9% | % viability @ 48 hr/25 ug/ml peptide, SR (SR): 88.9 ± 4.0% and 87.7 ± 6.7%

CC(C)C[C@H](NC(=O)[C@H](C)NC(=O)[C@H](C)NC(=O)[C@H](Cc1c[nH]c2ccccc12)NC(=O)[C@H](CS)NC(=O)[C@H](Cc1ccccc1)NC(=O)CNC(=O)[C@H](CCCNC(=N)N)NC(=O)[C@H](CCCCN)NC(=O)[C@H](CCCNC(=N)N)NC(=O)CNC(=O)[C@H](CCCCN)NC(=O)[C@H](CO)NC(=O)[C@@H]1CCCN1C(=O)[C@H](CCCNC(=N)N)NC(=O)[C@H](CS)NC(=O)[C@H](CCC(N)=O)NC(=O)[C@H](CCCCN)NC(=O)[C@H](CCCCN)NC(=O)[C@H](CCCCN)NC(=O)[C@H](Cc1ccc(O)cc1)NC(=O)[C@H](Cc1ccccc1)NC(=O)CNC(=O)[C@H](CCCCN)NC(=O)[C@H](CCCCN)NC(=O)CCCC[C@@H]1SC[C@@H]2NC(=O)N[C@@H]21)C(=O)N[C@@H](CC(=O)O)C(=O)N[C@@H](Cc1c[nH]c2ccccc12)C(=O)N[C@@H](CO)C(=O)N[C@@H](Cc1c[nH]c2ccccc12)C(=O)N[C@@H](CC(C)C)C(=O)N[C@@H](CCC(N)=O)C(=O)N[C@H](C(=O)O)[C@@H](C)O [NEMO] (Biotin-KKGFYKKKQCRPSKGRKRGFCWAALDWSWLQT-OH)
% viability @ 48 hr/25 ug/ml peptide, MDA-MB231 (MDA-MB231): 79.0 ± 0.8% | % viability @ 48 hr/25 ug/ml peptide, MX-I (MX-I): 59.1 ± 3.2% | % viability @ 48 hr/25 ug/ml peptide, MCF-7 (MCF-7): 77.0 ± 46.7% | % viability @ 48 hr/25 ug/ml peptide, MDA-MB435 (MDA-MB435): 67.4 ± 21.1% and 90.2 ± 3.6% | % viability @ 48 hr/25 ug/ml peptide, Hs578T (Hs578T): 81.3 ± 3.0% | % viability @ 48 hr/25 ug/ml peptide, SR (SR): 56.9 ± 6.2%

CC(C)C[C@H](NC(=O)[C@H](CC(C)C)NC(=O)[C@H](CCCCN)NC(=O)[C@H](Cc1c[nH]c2ccccc12)NC(=O)[C@@H](NC(=O)[C@H](CC(=O)O)NC(=O)[C@H](CO)NC(=O)[C@H](Cc1ccccc1)NC(=O)[C@@H](NC(=O)[C@H](CCC(=O)O)NC(=O)CCCC[C@@H]1SC[C@@H]2NC(=O)N[C@@H]21)[C@@H](C)O)C(C)C)C(=O)N[C@@H](CCCCN)C(=O)N[C@@H](CCCCN)C(=O)NCC(=O)N[C@@H](Cc1ccccc1)C(=O)N[C@@H](Cc1ccc(O)cc1)C(=O)N[C@@H](CCCCN)C(=O)N[C@@H](CCCCN)C(=O)N[C@@H](CCCCN)C(=O)N[C@@H](CCC(N)=O)C(=O)N[C@@H](CS)C(=O)N[C@@H](CCCNC(=N)N)C(=O)N1CCC[C@H]1C(=O)N[C@@H](CO)C(=O)N[C@@H](CCCCN)C(=O)NCC(=O)N[C@@H](CCCNC(=N)N)C(=O)N[C@@H](CCCCN)C(=O)N[C@@H](CCCNC(=N)N)C(=O)NCC(=O)N[C@@H](Cc1ccccc1)C(=O)N[C@@H](CS)C(=O)N[C@@H](Cc1c[nH]c2ccccc12)C(=O)O [PEP-2] (Biotin-ETFSDVWKLLKKGFYKKKQCRPSKGRKRGFCW-OH)
% viability @ 48 hr/25 ug/ml peptide, MDA-MB231 (MDA-MB231): 40.7 ± 1.8% | % viability @ 48 hr/25 ug/ml peptide, MX-I (MX-I): 6.8 ± 1.5% and 9.0 ± 0.6% | % viability @ 48 hr/25 ug/ml peptide, MOLT-4 (MOLT-4): 63.5 ± 7.7% and 57.9 ± 1.3% and 88.2 ± 2.6% | % viability @ 48 hr/25 ug/ml peptide, MCF-7 (MCF-7): 19.3 ± 6.3% and 33.5 ± 4.4% and 35.6 ± 5.7% | % viability @ 48 hr/25 ug/ml peptide, RPMI-8826 (RPMI-8826): 38.4 ± 4.2% | % viability @ 48 hr/25 ug/ml peptide, MDA-MB435 (MDA-MB435): 18.5 ± 1.0% | % viability @ 48 hr/25 ug/ml peptide, Hs578T (Hs578T): 31.1 ± 3.0% and 33.5 ± 2.3% | % viability @ 48 hr/25 ug/ml peptide, SR (SR): 33.7 ± 16.0% | Cytotoxic effect on cancer cells versus normal counterparts (in words) (cancer cells): strong cytotoxic effect on cancer cells but not their human counterparts
